# Test results: patent US20150368209A1, “4-Pyrimidinylamino-benzenesulfonamide derivatives and their use for the inhibition of polo-like kinase 1 (PLK1) for the treatment of cancer and their use for the treatment of bacterial infections” (VICHEM CHEMIE KUTATÓ KFT., priority 2013, published 2015)
# Experiments:
# human PLK1 kinase domain = biological target: T1, human PLK1 kinase domain (Homo sapiens, UniProt P53350); assay: In vitro PLK1 assay (IMAP fluorescence polarization kinase assay); assay type: biochemical; settings: for inhibition at 10 µM: at 10 uM compound
# T1 construct: Each reaction consisted of 30 nM enzyme PLK1 kinase domain
# Protocol: The activity of the compounds described in the present invention was determined using a commercially available IMAP Screening Express Assay Kit (Molecular devices).
# This method measures the change in the fluorescent polarization of a fluorescently-labeled peptide due to the effect of human PLK1 kinase domain on it. PLK1 kinase assays were performed in low protein binding 384-well plates (Corning 3676). Test compounds were diluted in 100% DMSO to 5 mM stock concentration, the further dilutions were made in H2O or 100% DMSO to desirable concentrations.
# Each reaction consisted of 30 nM enzyme PLK1 kinase domain, 400 nM 5TAMRA-RGSFNDTLDFD-NH2 (Genecust Europe), 16 μM ATP (=Kmapp, Sigma-Aldrich) and kinase buffer: 20 mM HEPES pH 7.5 (Sigma-Aldrich), 1 mM DTT (Sigma-Aldrich), 10 mM MgCl2 (Sigma-Aldrich), 0.01% Triton X-100 (Sigma-Aldrich).
# For each reaction, 4 or 6 μl containing 5TAMRA-RGSFNDTLDFD-NH2, ATP and kinase buffer were combined with 2 μl diluted compound in H2O or 0.04 μl compound in 100% DMSO. The kinase reaction was started by the addition of 2 μl diluted enzyme. The reaction was allowed to run for 90 minutes at room temperature. The reaction was stopped by adding 15 μl IMAP beads (1:1200 beads in progressive (40% buffer A, 60% buffer B) 1× buffer). After an additional 60 minutes, fluorescent polarization (Ex: 550-10 nm, Em: 590-10 nm, Dich: 561 nm) was measured using Analyst GT multimode reader (Molecular Devices).
# M. tuberculosis H37Rv = assay: Resazurin reduction microtiter assay (REMA), growth inhibition and MIC determination; assay type: cell-based; settings: Mycobacterium tuberculosis, 168 h, 7 days at 37° C.; for inhibition at 20 µM: at 20 uM compound, read-out: H37Rv inh % at 20 uM; for MIC: two-fold serial dilution from 100 to 0.16 μM, read-out: H37Rv MIC90
# T1 sequence (P53350 53-305 limits assumed): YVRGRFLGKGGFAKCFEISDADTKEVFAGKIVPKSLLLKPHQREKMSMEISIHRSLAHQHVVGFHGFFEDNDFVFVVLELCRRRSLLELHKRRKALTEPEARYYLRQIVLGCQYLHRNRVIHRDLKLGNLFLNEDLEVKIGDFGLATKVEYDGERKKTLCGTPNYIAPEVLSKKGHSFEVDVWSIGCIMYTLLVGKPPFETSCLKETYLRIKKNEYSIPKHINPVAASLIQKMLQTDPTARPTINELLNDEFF
compound,measurement,setting,value
"COc1cccc(F)c1-c1cc(Nc2ccc(S(=O)(=O)Nc3onc(C)c3C)cc2)ncn1 [Example 12, N-(3,4-Dimethyl-isoxazol-5-yl)-4-[6-(2-fluoro-6-methoxy-phenyl)-pyrimidin-4-ylamino]-benzenesulfonamide]",IC50,"human PLK1 kinase domain; 30 nM PLK1 kinase domain, 16 μM ATP (=Kmapp), 90 min at room temperature",1460 nM
same,inhibition at 10 µM,human PLK1 kinase domain,83.3%
same,inhibition at 20 µM,M. tuberculosis H37Rv,102%
same,MIC,M. tuberculosis H37Rv,1.13 µM
same,HepG2 TD50,HepG2,19.6
"COc1cccc(OC)c1-c1cc(Nc2ccc(S(=O)(=O)Nc3onc(C)c3C)cc2)ncn1 [Example 22, 4-[6-(2,6-Dimethoxy-phenyl)-pyrimidin-4-ylamino]-N-(3,4-dimethyl-isoxazol-5-yl)-benzenesulfonamide]",inhibition at 10 µM,human PLK1 kinase domain,10.1%
same,inhibition at 20 µM,M. tuberculosis H37Rv,102%
same,MIC,M. tuberculosis H37Rv,7.24 µM
same,HepG2 TD50,HepG2,9.819
